The results in this text go back to patent publication US11446269B2, “Methods of reducing or preventing oxidation of small dense LDL or membrane polyunsaturated fatty acids” (Amarin Pharmaceuticals Ireland Limited, priority 2014, dated 2022).

Values joined by “and” are separate entries in the source; they are usually repeats but may differ in a detail not shown here. Equal entries are not always repeated.

The nature of assay [1]: LOOH formation in glucose-treated model membranes, EPA versus EA and ETE (Example 5). Type of assay: biochemical. The conditions noted are these: 72 or 96 hr autoxidation. The method, then: An experiment was conducted to compare the ability of EPA to prevent lipid hydroperoxide formation in model membranes treated with glucose to two other 20-carbon fatty acids: eicosanoic acid (“EA,” also referred to as arachidic acid, C20:0) and eicosatrienoic acid (“ETE,” C20:3, n-3). All MLV samples were subjected to time-dependent autoxidation by incubating at 37° C. in an uncovered, shaking water bath. This method allows lipid peroxidation to occur gradually without requiring the use of exogenous initiators. Small aliquots (5-100 μL) of each sample were removed, immediately following MLV preparation (0 hr) and after exposing samples to oxidative conditions for 72 or 96 hr, and combined with 1.0 mL of activated CHOD-iodide color reagent. Aliquot volume was reduced with each successive time point to ensure that spectrophotometric readings were within the optimal adsorption range. Test samples were covered and incubated in darkness at room temperature for at least 4 hr. Sample absorbances were then measured against a CHOD blank at 365 nm using a Beckman DU-640 spectrophotometer. The CHOD colorimetric assay is based on the oxidation of iodide (I^−) by lipid hydroperoxide (LOOH) to form triiodide (I3^−), the quantity of which is directly proportional to the amount of LOOH present in the lipid sample. The molar absorptivity (ε) of I3^− is 2.46×10^4 M^−1 cm^−1 at 365 nm.

The nature of assay [2]: X-ray diffraction of cholesterol domains in POPC/cholesterol model membranes, C/P 1.5:1 (Example 9). The conditions noted are these: drug-to-phospholipid mole ratio 1:30, C/P 1.5:1. The method, then: Multilamellar vesicles (MLVs) were prepared as binary mixtures that include palmitoyloleoylphosphatidylcholine (POPC) (1.0 mg total phospholipid per sample) and cholesterol at an elevated cholesterol-to-phospholipid (C/P) mole ratio of 1.5:1. […] Samples were shell-dried under nitrogen gas and placed under vacuum for 3 hours to remove residual solvent at room temperature. After desiccation, each sample was resuspended in saline buffer (0.5 mM HEPES, 154 mM NaCl, pH 7.3) to yield a final phospholipid concentration of 2.5 mg/mL. Lipid suspensions were then vortexed for 3 minutes at ambient temperature to form MLVs.
Briefly, a 100 μL aliquot of each MLV preparation (containing 250 μg MLV) was transferred to a Lucite® sedimentation cell fitted with an aluminum foil substrate designed to collect MLVs into a single membrane pellet upon centrifugation. Samples were then loaded into a Sorvall AH-629 swinging bucket rotor (DuPont Corp., Wilmington, Del.) and centrifuged at 35,000 g, 5° C., for 90 minutes.
After centrifugal orientation, sample supernatants were aspirated and aluminum foil substrates, each supporting a single membrane pellet, were removed from the sedimentation cells. Sample pellets were dried for 5-10 minutes at ambient conditions, mounted onto curved glass supports, and placed in hermetically-sealed, brass or glass containers (for immediate analysis or temporary storage, respectively). All x-ray diffraction experiments were conducted at 20° C., 74% relative humidity. The latter was established by exposing membrane samples to saturated solutions of […] (K2C4H4O6.½H2O) for at least 1 hour prior to experimental analysis.
Oriented membrane samples were aligned at grazing incidence with respect to a collimated, mono-chromatic CuKα x-ray beam (Kα1 and Kα2 unresolved; λ=1.54 Å) produced by a Rigaku Rotaflex RU-200, high-brilliance microfocus generator (Rigaku-MSC, The Woodlands, Tex.) as previously described (Mason et al., Biophys. J., vol. 55(4), pages 769-778 (1989)). The samples were initially subjected to x-ray diffraction analysis at least 12 hours after formation of the membrane pellets and retested for up to several days. Analytical x-rays were generated by electron bombardment of a rotating copper anode and are filtered through a thin nickel foil to provide monochromatic radiation (λ=1.54 Å). Collimation of the x-ray beam was achieved using a single Franks mirror. […]
The d-space for any given membrane multi bilayer is a measurement of the unit cell periodicity of the membrane lipid bilayer (e.g., the distance from the center of one lipid bilayer to the next including surface hydration), and is calculated from Bragg's Law, hλ=2d sin θ, where h is the diffraction order, λ is the wavelength of the x-ray radiation (1.54 Å), d is the membrane lipid bilayer unit cell periodicity, and θ is the Bragg angle equal to one-half the angle between the incident beam and scattered beam.
The presence of cholesterol domains in a given membrane sample results in the production of distinct Bragg (diffraction) peaks having singular periodicity values of 34 and 17 Å (typically referred to as first- and second-order cholesterol domain peaks). Under the specific temperature and relative humidity conditions established for these experiments, the second-order, 17 Å cholesterol domain peak was well-delineated from other, neighboring cholesterol and phospholipid diffraction peaks and was thus used to quantitate relative cholesterol domain peak intensity. […]

The next assay relates to sdLDL. Put plainly: Glucose-induced sdLDL oxidation, MDA/TBARS (Example 10). Particulars: 10.0 μM, glucose 200 mg/dL. It is filed as biochemical, human. The method, then: Vitamin E (α-tocopherol) purchased from Sigma-Aldrich was prepared in ethanol at 1.0 mM (ε=3.06×10^4 M^−1 cm^−1 at 294 nm) prior to experimental use. Test compounds were further diluted in ethanol or aqueous buffer as needed. Phosphate Buffered Saline (PBS) purchased from Sigma-Aldrich was prepared in double distilled water at 10 mM (138 mM NaCl, 2.7 mM KCl, pH 7.4). […] Lipid oxidation was measured by the colorimetric detection of malondialdehyde (MDA), a marker of oxidative stress.

The next assay has as its system human sdLDL. Put plainly: Copper-induced sdLDL oxidation, TBARS (Example 7). Type of assay: biochemical. The method, then: (§1) An experiment to study the antioxidant effect of EPA in LDL and small dense […] performed. […] Fenofibrate, gemfibrozil, and niacin were purchased from Sigma-Aldrich. […] Vitamin E was also incubated with sample aliquots as a positive control.

Another assay concerns unfractionated LDL. Put plainly: Copper-induced oxidation of unfractionated LDL, TBARS (Example 7). Type of assay: biochemical, human. Particulars: 10 μM, 1 hr. The method, then: as §1

For the compound `CC/C=C\C/C=C\C/C=C\C/C=C\C/C=C\CCCC(=O)O` [EPA, cis-5,8,11,14,17-eicosapentaenoic acid], in assay [1], the “LOOH formation compared to vehicle, glucose, glucose + EA, glucose + ETE” value is recorded as “significantly less LOOH formation”. In assay [2], the “reduction in cholesterol domain peaks vs vehicle” value turned out to be 65%. In the assay on sdLDL, this compound showed an MDA formation of 0.2 ± 0.1 µM. In addition, in the assay on sdLDL (vs vehicle controls), the “inhibition of sdLDL oxidation” value was 94%. In addition, in the assay with human sdLDL (10.0 μM, after 4 hours, vs vehicle or DHA), the “effect on sdLDL oxidation” value was “significantly inhibited sdLDL oxidation”. The “inhibition of sdLDL oxidation (TBARS formation)” value with human sdLDL (each agent at 10 μM, 1 hr, vs vehicle, 10 µM) is 93±2% and 92±8%. Further, in the assay on unfractionated LDL (unfractionated LDL, vs vehicle), the “inhibition of TBARS formation” value is given as greater than 90%.
With `O=C(O)c1cccnc1` [Niacin, nicotinic acid], in assay [2], the “effect on cholesterol domains” value is listed as “no significant changes in cholesterol domain size”. In the assay on sdLDL, the “effect on glucose-induced sdLDL oxidation” value was “did not inhibit”. The “effect on sdLDL oxidation” value with human sdLDL (10 μM, 1 hr, vs vehicle-treated controls) is on record as “no significant effect”. The “effect on unfractionated LDL oxidation” value with unfractionated LDL (vs vehicle-treated controls) is on record as “no significant effect”.
